We go through one molecule from paper PMC6744936, “Genome-wide identification, characterization and expression pattern analysis of APYRASE family members in response to abiotic and biotic stresses in wheat” (PeerJ, 2019).

Structures are written as SMILES.

This experiment has as its system T1, TaAPY3-1.
T1 construct: pET22a, E. coli BL21; genome set A copy
Nature of the experiment: phosphate release (Phosphate Assay Kit). The class given is biochemical, Triticum aestivum. As to conditions: 37 °C, pH 5.5, 8 mM Ca2+.

Consider `Nc1ncnc2c1ncn2[C@@H]1O[C@H](COP(=O)(O)OP(=O)(O)OP(=O)(O)O)[C@@H](O)[C@H]1O` [ATP], for which the Km (usually the concentration of substrate that gives half-maximal velocity) came to 8.7 mM.
